Patent US20230406840A1, “N-(2-(3-CYANO-2-AZABICYCLO[3.1.0]HEXAN-2-YL)-2-OXOETHYL)QUINOLINE-4-CARBOXAMIDES” (AstraZeneca AB, priority 2022, published 2023)
pIC50: −log10 of the molar value. ≈ marks a conversion by molar mass, not a printed value.

How the values were obtained:
Kinetic solubility = format: physicochemical; details: kinetic from dmso stock
Method: Kinetic solubility was measured as described in Comput Aided Mol Des 2015, 29, 795.

[1] = Metabolic stability in human liver microsomes (HLM); format: in vitro ADME
Method: Metabolic stability in HLM was measured as described in J Comput Aided Mol Des 2015, 29, 795.

[2] = molecular target: human Fibroblast activation protein alpha (hFAP) (Homo sapiens (Human), UniProt Q12884); test: hFAP inhibition assay (tight binders); format: biochemical; details: tight-binder format, Ala-Pro-AMC 20 μM, 2.5 h incubation; n = 1 or geometric mean (n = 5-10)
human Fibroblast activation protein alpha (hFAP), sequence (Q12884 38-760): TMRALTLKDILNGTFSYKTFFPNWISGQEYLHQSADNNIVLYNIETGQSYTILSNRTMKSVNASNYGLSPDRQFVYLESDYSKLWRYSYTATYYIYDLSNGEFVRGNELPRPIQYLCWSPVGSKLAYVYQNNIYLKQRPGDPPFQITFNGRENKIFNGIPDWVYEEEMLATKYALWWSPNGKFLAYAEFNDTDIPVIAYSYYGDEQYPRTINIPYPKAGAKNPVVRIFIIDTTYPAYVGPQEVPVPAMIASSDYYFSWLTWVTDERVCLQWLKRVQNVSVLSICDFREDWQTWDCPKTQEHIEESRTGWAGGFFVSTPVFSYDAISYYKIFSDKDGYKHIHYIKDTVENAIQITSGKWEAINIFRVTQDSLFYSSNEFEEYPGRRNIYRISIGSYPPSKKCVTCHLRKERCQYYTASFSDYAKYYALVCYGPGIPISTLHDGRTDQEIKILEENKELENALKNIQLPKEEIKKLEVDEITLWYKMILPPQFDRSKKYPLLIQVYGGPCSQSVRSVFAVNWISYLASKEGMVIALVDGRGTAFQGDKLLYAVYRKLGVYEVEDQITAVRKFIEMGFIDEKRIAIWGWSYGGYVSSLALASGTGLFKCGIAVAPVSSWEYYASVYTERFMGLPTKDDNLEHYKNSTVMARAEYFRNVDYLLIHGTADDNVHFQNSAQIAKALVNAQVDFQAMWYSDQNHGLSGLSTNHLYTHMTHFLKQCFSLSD
Method: Data were analyzed in Genedata Screener®.

Human Hepatocytes (hHep) = test: Metabolic stability in human hepatocytes (hHep); format: in vitro ADME
Method: Metabolic stability in human hepatocytes was measured as described in Xenobiotica 2010, 40, 637.

Rat Hepatocytes (rHep) = test: Metabolic stability in rat hepatocytes (rHep); format: in vitro ADME
Method: Metabolic stability in rat hepatocytes was measured as described in J Comput Aided Mol Des 2015, 29, 795.

hFAP = hFAP (Homo sapiens (Human), UniProt Q12884);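 further: fluorescence read after incubating enzyme with substrate at room temperature, IC50 fitted from percent inhibition against log concentration with a one-site model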
hFAP, sequence (Q12884 38-760): as above

[3] = molecular target: Prolyl Oligopeptidase (hPREP) (Homo sapiens (Human), UniProt P48147); test: hPREP inhibition assay; format: biochemical; details: hPREP 0.6 nM, Z-Gly-Pro-amino-methylcoumarin 50 μM; read-out: PREP IC50
Prolyl Oligopeptidase (hPREP), sequence (P48147 whole entry): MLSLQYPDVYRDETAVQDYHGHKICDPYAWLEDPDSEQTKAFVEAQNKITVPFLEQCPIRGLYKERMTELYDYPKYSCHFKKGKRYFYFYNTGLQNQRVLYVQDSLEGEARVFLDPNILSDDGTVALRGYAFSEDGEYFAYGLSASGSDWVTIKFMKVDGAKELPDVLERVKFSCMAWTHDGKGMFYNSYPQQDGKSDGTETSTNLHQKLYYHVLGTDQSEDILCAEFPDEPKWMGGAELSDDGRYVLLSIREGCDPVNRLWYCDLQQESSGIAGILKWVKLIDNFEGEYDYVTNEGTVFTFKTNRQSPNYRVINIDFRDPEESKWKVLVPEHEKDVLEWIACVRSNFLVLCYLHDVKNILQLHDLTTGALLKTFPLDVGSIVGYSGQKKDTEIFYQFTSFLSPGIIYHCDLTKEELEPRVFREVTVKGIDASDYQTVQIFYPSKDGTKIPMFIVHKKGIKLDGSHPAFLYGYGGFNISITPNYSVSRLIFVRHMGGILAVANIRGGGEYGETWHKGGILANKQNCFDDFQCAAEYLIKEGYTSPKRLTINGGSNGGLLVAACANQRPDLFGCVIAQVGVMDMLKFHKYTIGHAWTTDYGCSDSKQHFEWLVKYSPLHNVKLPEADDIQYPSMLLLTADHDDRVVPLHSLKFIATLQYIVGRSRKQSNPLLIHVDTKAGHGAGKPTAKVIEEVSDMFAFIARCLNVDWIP
In short: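 Recombinant human PREP at 0.6 nM final, with Z-Gly-Pro-AMC substrate at 50 μM final. Buffer: 25 mM Tris HCl pH 7.5, 250 mM NaCl, 0.01% Triton X-100, 5 mM glutathione. Incubated 20 min at rt in the dark; fluorogenic AMC release read.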

[4] = molecular target: FAP enzyme activity in mouse plasma (Mus musculus (Mouse), UniProt P97321); test: FAP target engagement enzyme activity in mouse plasma after oral dosing; details: male C57Bl/6 mice, single oral dose 3 or 10 mg/kg; estimated from plasma exposure vs FAP activity, Imax fixed to 1; read-out: In vivo Mouse IC50
FAP enzyme activity in mouse plasma, sequence (P97321 24-761 limits assumed): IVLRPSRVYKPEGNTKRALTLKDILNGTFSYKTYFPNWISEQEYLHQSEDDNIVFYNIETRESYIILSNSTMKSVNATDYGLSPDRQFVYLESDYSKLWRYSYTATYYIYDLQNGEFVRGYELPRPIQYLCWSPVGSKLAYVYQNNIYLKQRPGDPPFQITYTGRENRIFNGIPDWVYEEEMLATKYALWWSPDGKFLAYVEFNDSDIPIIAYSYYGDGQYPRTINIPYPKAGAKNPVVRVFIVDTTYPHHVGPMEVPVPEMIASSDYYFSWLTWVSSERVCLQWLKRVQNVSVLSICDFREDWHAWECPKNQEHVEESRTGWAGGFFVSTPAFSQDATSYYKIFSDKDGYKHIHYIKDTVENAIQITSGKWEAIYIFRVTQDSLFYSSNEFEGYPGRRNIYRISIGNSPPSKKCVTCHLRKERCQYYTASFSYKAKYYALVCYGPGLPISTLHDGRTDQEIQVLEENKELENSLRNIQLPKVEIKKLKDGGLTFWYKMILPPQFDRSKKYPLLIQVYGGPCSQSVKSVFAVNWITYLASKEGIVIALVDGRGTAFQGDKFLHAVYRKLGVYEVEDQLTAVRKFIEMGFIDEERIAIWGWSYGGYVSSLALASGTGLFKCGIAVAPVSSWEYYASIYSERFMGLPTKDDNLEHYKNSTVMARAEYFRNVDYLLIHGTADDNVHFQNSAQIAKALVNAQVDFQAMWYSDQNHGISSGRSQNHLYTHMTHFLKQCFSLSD
Method: The effect of test compound on FAP enzyme activity in mouse plasma was evaluated in an enzymatic assay using the Fibroblast Activation Protein alpha (FAP) specific fluorogenic substrate dipeptide-Coumarin, Ala-Pro-AMC, (ARI-3144). In this assay, FAP cleaves Ala-Pro-AMC to release free AMC which is measured as a fluorescent signal that correlates with enzyme activity.
Male C57Bl/6 mice (Charles River, Germany), 8 weeks of age, were single housed in a temperature-controlled room with a 12-hour light/dark cycle (06:00-18:00 light). The mice had ad libitum access to water and rodent chow diet (R70, Lactamin, Kimstad, Sweden), and were acclimated for 5 days upon arrival. After acclimation, all mice received a single oral dose of test compound (3 or 10 mg/kg). Blood samples for whole blood compound exposure measurements were taken at 0.25, 0.5, 1, 2, 4, 8 and 24 h post oral dosing. Samples were collected in EDTA capillary tubes (20 μL, K2E, REF 19.447) and were transferred to a 96-deep well plate (NUNC, Thermo Discher Scientific) and stored at −20° C. until further analyses were performed. […]
Recombinant human FAP (PB-17-1837, construct PL-17-0278, cd33-FAP (27-757)-6His, Mw85926 Da) was used as a standard for this assay. […] The plates were read on a Beckman Paradigm reader with excitation 360 nm and emission 465 nm. Fluorescence measurements were performed with kinetic read every 5 minutes for 60 min at room temperature. Data were analyzed in Excel (IDBS XLfit Add-In) using a Linear Regression (y=k*x+m) model to prepare a human recombinant FAP standard curve.
On the day of the assay, plasma was diluted (1:2) to 20 μL volume in buffer (PBS, 0.1% BSA) and 7.5 μL was transferred to the assay plate (384-well black, fluotrack PS, Greiner 781076). […] The plates were read on a Beckman Paradigm reader with excitation 360 nm and emission 465 nm. Fluorescence measurements were performed with kinetic read every 5 minutes for 60 minutes at room temperature. As noted above, FAP cleaves Ala-Pro-AMC to release free AMC which is measured as a fluorescent signal. […]

[5] = Caco-2 bidirectional (ABBA) permeability; format: in vitro ADME; details: human; for Papp A→B: A to B, read-out: Caco2 Bidirectional (ABBA) A to B Papp; for Papp B→A: B to A, read-out: Caco2 Bidirectional (ABBA) B to A Papp; for efflux ratio: read-out: Caco2 Bidirectional (ABBA) Efflux Ratio
Method: (§1) Caco-2 cell permeability was measured as described in Mol/Pharm 2017, 14, 1601.

[6] = Caco-2 AB intrinsic permeability; format: in vitro ADME; details: human, A to B, read-out: Caco2 AB Intrinsic Papp
Method: as §1

Compound	solubility (Kinetic solubility) [µM]	microsomal CLint [1] [µL/min/mg]	pIC50 [2]	hHep CLint (Human Hepatocytes (hHep)) [μL/min/1E6]	rHeps CLint (Rat Hepatocytes (rHep)) [μL/min/1E6]	pIC50 (hFAP)	pIC50 [3]	pIC50 [4]	Papp A→B [5] [×10⁻⁶ cm/s]	Papp B→A [5] [×10⁻⁶ cm/s]	efflux ratio [5]	Papp [6] [×10⁻⁶ cm/s]
Cc1ccc2c(C(=O)NCC(=O)N3[C@H](C#N)C[C@@H]4C[C@@H]43)ccnc2c1 [Example 20, N-(2-((1S,3S,5S)-3-Cyano-2-azabicyclo[3.1.0]hexan-2-yl)-2-oxoethyl)-7-methylquinoline-4-carboxamide]	> 1000	< 3.2	9.32	<1	<2	> 8.80	4.51	8.52	24	19	0.8	60
N#C[C@@H]1C[C@@H]2C[C@@H]2N1C(=O)CNC(=O)c1ccnc2cc(C3(C#N)CC3)ccc12 [Example 40, N-(2-((1S,3S,5S)-3-Cyano-2-azabicyclo[3.1.0]hexan-2-yl)-2-oxoethyl)-7-(1-cyanocyclopropyl)quinoline-4-carboxamide]	570 (≈ 220 µg/mL)	< 3	9.82	<1	2.6	9.31	< 4.30	7.44	2.8	28	10	9.3
